Measurements reported in US20220160669A1, “PARENTERAL NUTRITION FORMULATION” (BAXTER INTERNATIONAL INC., priority 2020, published 2022).

Tests used:
[1] = system: Pro-inflammatory cytokines; assay: Pro-inflammatory cytokines, summary (site not stated); format: in vivo, pig; parameters: key: + denotes a positive effect (compared to standard PN); ++ a very positive effect; − denotes no difference; conditions: compared to standard PN
From the text: (§1) Neonatal Yorkshire/Landrace cross bred piglets (n=72; six at a time from the same litter, repeating 12 times) were obtained from Oak Hill Genetics (Ewing, Ill.) after 48-hour sow reared for colostrum consumption and iron supplementation.
The influence of the respective supplements on inflammation was investigated by determining Il-6, Il-1beta, TNF-alpha and Il-10 serum levels in the intervention groups compared to EN and PN according to Milo et al., Effects of Short-Chain Fatty Acid-Supplemented Total Parenteral Nutrition on Intestinal Pro-Inflammatory Cytokine Abundance. Digestive Diseases and Sciences 2002; 47:2049-2055. Jejunal and ileal samples were homogenized in double-distilled water, and the Bradford protein assay (Biorad, Hercules, Calif., USA) was performed on homogenate and plasma samples. Protein (30 μg) from each sample was denatured by boiling, and proteins were separated by size using 12.5% sodium dodecyl sulfate polyacrylamide gel electrophoresis. Separated proteins were transferred to polyvinylidene difluoride membranes (Biorad) using a semidry transfer apparatus (Biorad). Western blot analysis for TNF-alpha, IL-1beta, Il-10 and IL-6 was performed using porcine-specific polyclonal antibodies (Endogen, Woburn, Mass., USA). A mouse anti-pig monoclonal TNF-alpha antibody was used to detect TNF-alpha ([…]). Rabbit anti-pig polyclonal antibodies specific for IL-1beta and IL-6 were used to detect IL-1beta (17,500 kDa), Il-10 (18,600 kDa) and IL-6 (26,000 kDa). Membranes were developed using the Opti-4CN kit (Biorad) and photographed using the FOTO/Analyst Image Analysis System (Fotodyne, Inc., Hartland, Wis., USA). Densitometry of TNF-alpha, IL-1beta, IL-6, and Il-10 was performed using Collage Image Analysis Software 4.0 (Fotodyne, Inc.). Results are shown in FIG. 15 (Il-6), FIG. 16 (Illbeta), FIG. 17 (TNF-alpha) and FIG. 18 (Il-10).

sIgA = assay: IgA quantification (jejunal sIgA, ELISA); format: in vivo, pig; parameters: key to IgA: + denotes a positive effect (compared to standard PN); ++ a very positive effect; − denotes no difference; conditions: for IgA: compared to standard PN; for Jejunal sIgA Concentration: compared to standard PN (s-PN)
From the text: as §1
Small intestine probes for IgA level determination were obtained by flushing the small intestine with chilled HBSS (Hank's Balanced Salt Solution). Nasal and bronchoalveolar washings for measurement of respiratory tract IgA levels were obtained by lavage with 1 mL phosphate-buffered saline solution under anesthesia. The washings were stored in a −80° C. freezer until IgA analysis. IgA was measured in small intestinal and respiratory tract washings by sandwich enzyme-linked immunosorbent assay using a polyclonal goat anti-mouse IgA (Sigma) to coat the plate, a purified mouse IgA (Zymed Laboratories, San Francisco, Calif.) as the standard, and a horseradish peroxidase-conjugated goat anti-mouse IgA (Sigma).

[2] = system: Neonatal Yorkshire/Landrace cross bred piglets; assay: Cognitive assessment by eyeblink conditioning; format: in vivo, pig; parameters: key: + denotes a positive effect (compared to standard PN); ++ a very positive effect; − denotes no difference; conditions: compared to standard PN
From the text: Eyeblink conditioning is an established Pavlovian method to assess the cerebellum and associated brainstem circuitry with hippocampus involvement that are essential for learning and memory. The eyeblink conditioning procedure took place in a sound-attenuating chamber. A fan was inside the chamber and ran throughout the experiment for ambient noise (70 dB). A speaker mounted to the wall of the chamber delivered the tone conditioned stimulus (CS). A small plastic air puff delivery nozzle (San Diego Instruments, San Diego, Calif.) was secured at approximately 2 cm from the piglet's left eye to deliver the unconditioned stimulus (US). After adaptation to the conditioning apparatus on study day 3, a total of five CS-US conditioning sessions occurred on study days 4-8 following. Each conditioning session consisted of 90 CS-US paired trials and 10 CS alone trials for a total of 100 trials/session. Every tenth trial was a CS alone trial. The CS-US paired trials included: a 500 ms auditory CS (1 kHz, 85 dB tone), a 400 ms interstimulus interval (ISI), followed by a 100 ms corneal airpuff US (10 psi). Both the CS and US were co-terminated at the exact same time. The CS alone trials consisted of a 500 ms auditory CS (1 kHz, 85 dB tone) only. There were random inter-trial intervals of 20 seconds throughout each session. Each conditioning session lasted no longer than 35 minutes. The San Diego Instruments eyeblink software was used to record conditioning session moment-to-moment infrared-reflectance data.

[3] = system: Neonatal Yorkshire/Landrace cross bred piglets; assay: Duodenal mucosal resistance (Ussing chamber), PN-fed neonatal piglets; format: in vivo, pig; parameters: key: + denotes a positive effect (compared to standard PN); ++ a very positive effect; − denotes no difference; conditions: 10 days, compared to standard PN
[4] = Stability of butyrate derivative compositions (sterilization, shelf-life); conditions: for free butyric acid released during the sterilization of the bags: lipid chamber, GC-FID

Compound	Pro-inflammatory cytokines ([1]; 10 mmol/L in PN)	IgA (sIgA; 10 mmol/L in PN)	Cognitive ([2]; 10 mmol/L in PN)	Tight junctions ([3]; 10 mmol/L in PN)	free butyric acid released during the sterilization of the bags [4]	Pro-inflammatory cytokines ([1]; 30 mmol/L in PN)	Jejunal sIgA Concentration (sIgA; 10 mmol/L)	IgA (sIgA; 30 mmol/L in PN)	Jejunal sIgA Concentration (sIgA; 30 mmol/L)	Cognitive ([2]; 30 mmol/L in PN)	Tight junctions ([3]; 30 mmol/L in PN)	stable shelf-life ([4]; 25° C. and 40% relative humidity (RH), in an amino acid formulation)	stability during production and sterilization ([4]; amino acid chamber / amino acid formulation)	concentration at which aqueous composition is producible and stable ([4]; aqueous arginine butyrate composition)
CCCCCCCCCCCCCCCC(=O)OCC(COC(=O)CCC)OC(=O)CCCCCCCCCCCCCCC (centres unmarked) [1,2-Dipalmitoyl 3-butyryl glycerol]	+	++	−	−	only very limited amounts									
CCCC(=O)OCC(COC(=O)CCC)OC(=O)CCC [Tributyrin]	−	++	−	−	only very limited amounts	+	++^5 (++ indicates P < 0.05)	++	++^5 (++ indicates P < 0.05)	−	−			
L-arginine, butanoate (3:4) [Arginine butyrate]	++		−	++			+++^3 (+++ indicate P < 0.01)					at least 12 months	stable during production, sterilization	up to 5500 mg/L
